Patent US7674767B2, “Nanoparticle compositions of water-soluble drugs for oral administration and preparation methods thereof” (Samyang Corporation, priority 2003, dated 2010)

Test: Gastrointestinal absorption test, blood concentration of ceftriaxone after intra-duodenal administration
Assay type: in vivo, Sprague Dawley rat
Conditions: intra-duodenal 40 mg/kg, normal rats
Procedure: Normal rat (Sprague Dawley, male, weighing about 200 g) was ether-anesthetized, and the abdomen was opened. The duodenum was taken and the nanoparticle liquid formulation containing ceftriaxone was administered thereto at 40 mg/kg as ceftriaxone.
The formulations of Examples 6 and Example 7, and Comparative Example 5 were used for test groups. The formulation of Comparative Example 5 is one containing neither ceftriaxone-counter-ion complex nor polymer, and so having lower drug entrapping rate and incapable of controlling drug dissolution compared with that of Example 6.
Blood was gathered from tail vein at 0, 0.5, 1, 1.5, 2, 3 and 4 hours after the drug administration, and analyzed according to ceftriaxone analysis method of the US Pharmacopoeia. The blood was centrifuged at 3000 rpm for 10 minutes, and pretreated by adding the equal amount of acetonitrile thereto.
As reference group 1, ceftriaxone dissolved in water was administered at 40 mg/kg via the same route as Example 6.
As reference group 2, ceftriaxone dissolved in a physiological saline was intravenously injected at 20 mg/kg.

With `CO/N=C(\C(=O)N[C@@H]1C(=O)N2C(C(=O)O)=C(CSc3nc(=O)c(=O)[nH]n3C)CS[C@H]12)c1csc(N)n1` [aqueous solution of ceftriaxone, ceftriaxone] the “absorption of ceftriaxone in vivo” value was “not nearly absorbed”.
